Holding throughout (assay type): biochemical
What all share (conditions): ADP-Glo SIK kinase assay

The target in one assay is T1, SIK2 (Homo sapiens, UniProt Q9H0K1).
T1 construct: purchased ThermoFisher Scientific PV4792
Nature of the assay: ADP-Glo kinase assay, SIK2. As for the experimental part: (§1) The ADP-Glo™ kinase assay is a luminescent technology assay which measures the ADP formed from a kinase reaction. […] In a second step the kinase reactions are terminated and all the remaining ATP is depleted. In a final step the ADP is converted into ATP and this newly synthesized ATP is measured by using a luciferase/luciferin reaction. The generated light is measured using an Envision plate reader, wherein the luminescent signal obtained positively correlates with the kinase activity.
(§2) 1% DMSO and 10 μM staurosporine final concentrations are used as negative and positive controls.
(§3) 2 μL enzyme-substrate mixture is added to the assay plates.
(§4) The reaction is started by adding 2 μL diluted ATP on the assay plates. Plates are centrifuged for a few seconds at 1000 rpm and gently shaken for 2 min followed by an incubation at RT for 120 min.
(§5) The reactions are stopped and the unconsumed ATP is depleted by adding 5 μL ADP-Glo Reagent (Promega, Cat #V912B) to the reaction. The plates are centrifuged for a few seconds at 1000 rpm and incubated at RT for 40 min (ATP depletion).
(§6) The ADP is converted to ATP and luciferase and luciferin is introduced to detect ATP by adding 10 μL Kinase Detection Reagent (Promega, Cat #V913B+V914B) to the reaction. The plates are centrifuged for a few seconds at 1000 rpm and incubated at RT for 30 min (ADP detection).
(§7) Luminescence is measured on an Envision plate reader (PerkinElmer Inc.).
(In general: In ADP-Glo the light output rises with the ADP produced.)

Another assay concerns the target T2, SIK1 (Homo sapiens, UniProt P57059).
T2 construct: purchased Carna Biosciences 02-131
Nature of the assay: ADP-Glo kinase assay, SIK1. As for the experimental part:
as §1, §2, §3, §4, §5, §6, §7

The target in the next assay is T3, SIK3 (Homo sapiens, UniProt Q9Y2K2).
T3 construct: purchased SignalChem S12-11G-100
T3 sequence (Q9Y2K2 whole entry): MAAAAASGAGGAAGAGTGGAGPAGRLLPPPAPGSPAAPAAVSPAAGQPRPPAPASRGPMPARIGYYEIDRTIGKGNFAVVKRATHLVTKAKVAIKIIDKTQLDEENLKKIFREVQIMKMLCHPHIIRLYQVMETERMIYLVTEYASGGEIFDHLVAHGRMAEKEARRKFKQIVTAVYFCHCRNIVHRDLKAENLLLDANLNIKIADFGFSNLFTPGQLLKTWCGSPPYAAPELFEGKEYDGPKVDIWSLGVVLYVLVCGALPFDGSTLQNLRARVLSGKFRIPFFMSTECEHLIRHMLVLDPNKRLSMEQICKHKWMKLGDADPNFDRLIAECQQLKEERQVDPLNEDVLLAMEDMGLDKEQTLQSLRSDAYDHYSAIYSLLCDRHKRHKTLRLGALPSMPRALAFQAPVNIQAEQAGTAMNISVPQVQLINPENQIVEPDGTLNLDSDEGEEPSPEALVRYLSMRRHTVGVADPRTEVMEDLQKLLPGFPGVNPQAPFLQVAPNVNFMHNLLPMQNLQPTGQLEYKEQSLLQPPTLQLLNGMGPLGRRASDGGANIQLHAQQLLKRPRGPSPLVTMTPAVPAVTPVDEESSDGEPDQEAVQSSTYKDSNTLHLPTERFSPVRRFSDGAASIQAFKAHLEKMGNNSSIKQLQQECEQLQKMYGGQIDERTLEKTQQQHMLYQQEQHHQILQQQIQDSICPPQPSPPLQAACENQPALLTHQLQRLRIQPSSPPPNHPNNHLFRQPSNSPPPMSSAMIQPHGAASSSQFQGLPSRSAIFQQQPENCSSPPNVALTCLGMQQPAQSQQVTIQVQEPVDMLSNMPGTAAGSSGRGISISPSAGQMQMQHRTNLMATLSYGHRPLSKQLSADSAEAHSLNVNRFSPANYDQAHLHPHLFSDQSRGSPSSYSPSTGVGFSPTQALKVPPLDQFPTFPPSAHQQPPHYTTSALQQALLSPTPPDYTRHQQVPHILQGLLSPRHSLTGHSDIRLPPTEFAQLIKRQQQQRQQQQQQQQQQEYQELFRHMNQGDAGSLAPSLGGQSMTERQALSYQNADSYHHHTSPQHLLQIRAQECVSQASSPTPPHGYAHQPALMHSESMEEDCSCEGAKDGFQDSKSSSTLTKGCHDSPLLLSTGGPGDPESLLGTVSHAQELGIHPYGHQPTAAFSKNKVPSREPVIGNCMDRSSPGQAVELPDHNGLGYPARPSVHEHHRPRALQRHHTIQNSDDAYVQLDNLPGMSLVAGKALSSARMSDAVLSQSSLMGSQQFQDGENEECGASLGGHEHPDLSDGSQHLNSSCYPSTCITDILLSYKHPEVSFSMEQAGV
Nature of the assay: ADP-Glo kinase assay, SIK3. The protocol:
as §1, §2, §3, §4, §5, §6, §7

For orientation: IC50 means the concentration needed to halve the response being measured. The low end stands for greater potency, the high end for weaker potency.

T2 sequence (P57059 whole entry): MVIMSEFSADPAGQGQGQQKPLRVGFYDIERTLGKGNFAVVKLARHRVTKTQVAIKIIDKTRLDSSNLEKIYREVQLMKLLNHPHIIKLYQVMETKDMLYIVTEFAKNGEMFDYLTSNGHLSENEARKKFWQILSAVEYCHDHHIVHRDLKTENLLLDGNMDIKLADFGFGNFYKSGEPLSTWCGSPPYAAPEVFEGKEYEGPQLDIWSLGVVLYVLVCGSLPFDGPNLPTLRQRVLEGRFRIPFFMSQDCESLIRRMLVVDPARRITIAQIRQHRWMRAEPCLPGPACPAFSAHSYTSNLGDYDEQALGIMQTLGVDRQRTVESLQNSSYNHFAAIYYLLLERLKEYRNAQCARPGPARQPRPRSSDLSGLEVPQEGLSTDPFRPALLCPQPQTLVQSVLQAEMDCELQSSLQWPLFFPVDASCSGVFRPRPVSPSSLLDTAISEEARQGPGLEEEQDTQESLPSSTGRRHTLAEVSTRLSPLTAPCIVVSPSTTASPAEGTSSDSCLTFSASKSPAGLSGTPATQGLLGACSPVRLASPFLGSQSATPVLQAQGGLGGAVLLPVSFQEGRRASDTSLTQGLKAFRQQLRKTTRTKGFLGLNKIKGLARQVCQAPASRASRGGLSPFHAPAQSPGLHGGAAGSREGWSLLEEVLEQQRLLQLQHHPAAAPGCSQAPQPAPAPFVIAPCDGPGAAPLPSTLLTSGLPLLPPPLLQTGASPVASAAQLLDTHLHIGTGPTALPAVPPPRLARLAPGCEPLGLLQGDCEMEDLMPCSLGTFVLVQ
T1 sequence (Q9H0K1 whole entry): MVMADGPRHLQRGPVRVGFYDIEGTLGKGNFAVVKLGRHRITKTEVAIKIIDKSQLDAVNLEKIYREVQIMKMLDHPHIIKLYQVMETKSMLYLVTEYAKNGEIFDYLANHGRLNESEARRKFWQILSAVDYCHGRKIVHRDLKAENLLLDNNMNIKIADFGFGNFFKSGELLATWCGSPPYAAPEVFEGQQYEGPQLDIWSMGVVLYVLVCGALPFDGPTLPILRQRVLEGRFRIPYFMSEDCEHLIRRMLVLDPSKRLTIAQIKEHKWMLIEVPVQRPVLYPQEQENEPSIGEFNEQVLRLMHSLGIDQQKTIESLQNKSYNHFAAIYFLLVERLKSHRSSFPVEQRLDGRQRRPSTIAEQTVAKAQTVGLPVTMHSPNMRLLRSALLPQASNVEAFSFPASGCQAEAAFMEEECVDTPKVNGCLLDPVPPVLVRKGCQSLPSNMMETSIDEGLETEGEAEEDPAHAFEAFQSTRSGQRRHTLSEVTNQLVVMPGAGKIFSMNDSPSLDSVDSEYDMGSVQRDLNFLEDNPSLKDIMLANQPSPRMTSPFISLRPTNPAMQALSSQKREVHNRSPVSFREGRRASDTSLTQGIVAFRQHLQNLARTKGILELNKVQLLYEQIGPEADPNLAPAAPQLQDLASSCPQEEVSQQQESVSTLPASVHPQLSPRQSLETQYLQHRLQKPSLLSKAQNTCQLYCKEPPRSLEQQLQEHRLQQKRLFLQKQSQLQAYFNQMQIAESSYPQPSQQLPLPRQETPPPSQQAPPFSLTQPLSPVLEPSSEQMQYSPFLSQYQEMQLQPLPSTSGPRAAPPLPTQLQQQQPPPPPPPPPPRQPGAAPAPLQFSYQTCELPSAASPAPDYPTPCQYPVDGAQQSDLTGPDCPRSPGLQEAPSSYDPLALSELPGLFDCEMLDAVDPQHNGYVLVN

On to `COc1cc(-c2cnc3cc(OCc4cccnc4)ccn23)cc(OC(F)F)c1C(=O)NC1CC1` [compound 43, N-cyclopropyl-2-(difluoromethoxy)-6-methoxy-4-[7-(3-pyridylmethoxy)imidazo [1,2-a]pyridin-3-yl]benzamide], for which the IC50 against SIK2 lay within 0.01 to 10 nM; against SIK1, 10 to 100 nM; on SIK3, 0.01 to 10 nM.

Take `COc1cc(-c2cnc3cc(OCC4(C)CN(C(=O)OC(C)(C)C)C4)ccn23)cc2c1C(=O)N(CC(F)(F)F)CC2` [compound 249, tert-butyl 3-[[3-[8-methoxy-1-oxo-2-(2,2,2-trifluoroethyl)-3,4-dihydroisoquinolin-6-yl]imidazo[1,2-a]pyridin-7-yl]oxymethyl]-3-methyl-azetidine-1-carboxylate]: the IC50 at SIK2 was 10 to 100 nM; on SIK1, 100 to 500 nM; against SIK3, 0.01 to 10 nM.

For the compound `COc1cc(-c2cnc3cc(OCC4COCCN4)ccn23)cc(OC(F)F)c1C(=O)NC1CC1` (stereo not drawn) [Cpd 113, N-cyclopropyl-2-(difluoromethoxy)-6-methoxy-4-[7-(morpholin-3-ylmethoxy)imidazo[1,2-a]pyridin-3-yl]benzamide], the IC50 against SIK2 fell in the range of 0.01 to 10 nM; against SIK1, 10 to 100 nM; on SIK3 it was 0.01 to 10 nM.

As to `COc1cc(-c2cnc3cc(OCCN4CC(C)OC(C)C4)ccn23)cc(OC(F)F)c1C(=O)NC1CC1` (stereo not drawn) [Cpd 177, N-cyclopropyl-2-(difluoromethoxy)-4-[7-[2-(2,6-dimethylmorpholin-4-yl)ethoxy]imidazo [1,2-a]pyridin-3-yl]-6-methoxy-benzamide], the IC50 against SIK2 lay within 0.01 to 10 nM; against SIK1, 10 to 100 nM; at SIK3, 0.01 to 10 nM.

For the compound `COc1cc(-c2cnc3cc(OCCCN4CCc5nc(C)sc5C4)ccn23)cc(OC(F)F)c1C(=O)NC1CC1` [compound 320, N-cyclopropyl-2-(difluoromethoxy)-6-methoxy-4-[7-[3-(2-methyl-6,7-dihydro-4H-thiazolo[5,4-c]pyridin-5-yl)propoxy]imidazo[1,2-a]pyridin-3-yl]benzamide], the IC50 against SIK2 lay within 0.01 to 10 nM; at SIK1, 10 to 100 nM; against SIK3, 0.01 to 10 nM.

For the compound `COc1cc(-c2cnc3cc(OCC4CCCOC4)ccn23)cc(OC(F)F)c1C(=O)NC1CC1` (stereo not drawn) [compound 59, N-cyclopropyl-2-(difluoromethoxy)-6-methoxy-4-[7-(tetrahydropyran-3-ylmethoxy)imidazo[1,2-a]pyridin-3-yl]benzamide], the IC50 against SIK2, on SIK1 and at SIK3 was 0.01 to 10 nM throughout.

Turning to `COc1cc(-c2cnc3cc(OCCN4CCC(F)(F)C4)ccn23)cc(OC(F)F)c1C(=O)NC1CC1` [compound 180, N-cyclopropyl-2-(difluoromethoxy)-4-[7-[2-(3,3-difluoropyrrolidin-1-yl)ethoxy]imidazo[1,2-a]pyridin-3-yl]-6-methoxy-benzamide], the results for the 50% inhibitory concentration (IC50) against SIK2, against SIK1 and against SIK3 were 0.01 to 10 nM, 10 to 100 nM and 0.01 to 10 nM, respectively.

In the case of `COc1cc(-c2cnc3cc(OCc4ccccc4)ccn23)cc(OC(F)F)c1C(=O)NC1CC1` [compound 68, 4-(7-benzyloxyimidazo[1,2-a]pyridin-3-yl)-N-cyclopropyl-2-(difluoromethoxy)-6-methoxy-benzamide], the IC50 on SIK2, on SIK1 and against SIK3 was 0.01 to 10 nM each time.

`COc1cc(-c2cnc3cc(OCCCN4CCCC(C#N)C4)ccn23)cc(OC(F)F)c1C(=O)NC1CC1` (stereo not drawn) [compound 346, 4-[7-[3-(3-cyano-1-piperidyl)propoxy]imidazo [1,2-a]pyridin-3-yl]-N-cyclopropyl-2-(difluoromethoxy)-6-methoxy-benzamide]: the IC50 lay within 0.01 to 10 nM against SIK2, 10 to 100 nM against SIK1 and 0.01 to 10 nM against SIK3.

Turning to `COc1cc(-c2cnc3cc(OCC4CC(F)(F)C4)ccn23)cc(OC(F)F)c1C(=O)NC1CC1` [compound 52, N-cyclopropyl-4-[7-[(3,3-difluorocyclobutyl)methoxy]imidazo[1,2-a]pyridin-3-yl]-2-(difluoromethoxy)-6-methoxy-benzamide], the concentration for half-maximal inhibition (IC50) at SIK2, on SIK1 and at SIK3 was 0.01 to 10 nM each time.

As for `COc1cc(-c2cnc3cc(OCC4CCCN4C)ccn23)cc(OC(F)F)c1C(=O)NC1CC1` (stereo not drawn) [compound 28, N-cyclopropyl-2-(difluoromethoxy)-6-methoxy-4-[7-[(1-methylpyrrolidin-2-yl)methoxy]imidazo[1,2-a]pyridin-3-yl]benzamide], the IC50 against SIK2 was 0.01 to 10 nM; at SIK1, 100 to 500 nM; against SIK3 it was 0.01 to 10 nM.

On to `COc1cc(-c2cnc3cc(OC[C@@H](N)C4CCCCC4)ccn23)cc(OC(F)F)c1C(=O)NC1CC1` [compound 133, 4-[7-[(2S)-2-amino-2-cyclohexyl-ethoxy]imidazo[1,2-a]pyridin-3-yl]-N-cyclopropyl-2-(difluoromethoxy)-6-methoxy-benzamide], for which the figures for the IC50 against SIK2, against SIK1 and at SIK3 were 0.01 to 10 nM, 10 to 100 nM and 0.01 to 10 nM, respectively.

With `COc1cc(-c2cnc3cc(OCC4CCCCC4)ccn23)cc(OC(F)F)c1C(=O)NC1CC1` [compound 69, 4-[7-(cyclohexylmethoxy)imidazo[1,2-a]pyridin-3-yl]-N-cyclopropyl-2-(difluoromethoxy)-6-methoxy-benzamide], the results for the IC50 against SIK2, against SIK1 and at SIK3 were 0.01 to 10 nM, 10 to 100 nM and 0.01 to 10 nM, respectively.

Turning to `COc1cc(-c2cnc3cc(OCCCN4CCn5cccc5C4)ccn23)cc(OC(F)F)c1C(=O)NC1CC1` [compound 310, N-cyclopropyl-2-(difluoromethoxy)-4-[7-[3-(3,4-dihydro-1H-pyrrolo[1,2-a]pyrazin-2-yl)propoxy]imidazo[1,2-a]pyridin-3-yl]-6-methoxy-benzamide], the IC50 lay in the range of 0.01 to 10 nM against SIK2, 10 to 100 nM against SIK1 and 0.01 to 10 nM against SIK3.

As for `COc1cc(-c2cnc3cc(OC[C@H]4CNCC[C@@H]4O)ccn23)cc(OC(F)F)c1C(=O)NC1CC1` (racemic) [Cpd 373, N-cyclopropyl-2-(difluoromethoxy)-4-[7-[[(3R,4S)-4-hydroxy-3-piperidyl]methoxy]imidazo [1,2-a]pyridin-3-yl]-6-methoxy-benzamide/ N-cyclopropyl-2-(difluoromethoxy)-4-[7-[[(3S,4R)-4-hydroxy-3-piperidyl]methoxy]imidazo [1,2-a]pyridin-3-yl]-6-methoxy-benzamide mixture], the IC50 on SIK2 was in the range of 0.01 to 10 nM; against SIK1, 10 to 100 nM; at SIK3, 0.01 to 10 nM.

In the case of `COc1cc(-c2cnc3cc(OCCN4CCCC4)ccn23)cc(OC(F)F)c1C(=O)NC1CC1` [compound 20, N-cyclopropyl-2-(difluoromethoxy)-6-methoxy-4-[7-(2-pyrrolidin-1-ylethoxy)imidazo[1,2-a]pyridin-3-yl]benzamide], the values for the IC50 on SIK2, at SIK1 and at SIK3 were 0.01 to 10 nM, 10 to 100 nM and 0.01 to 10 nM, respectively.

Consider `COc1cc(-c2cnc3cc(OCCN4CCS(=O)(=O)CC4)ccn23)cc(OC(F)F)c1C(=O)NC1CC1` [compound 22, N-cyclopropyl-2-(difluoromethoxy)-4-[7-[2-(1,1-dioxo-1,4-thiazinan-4-yl)ethoxy]imidazo[1,2-a]pyridin-3-yl]-6-methoxy-benzamide], for which the IC50 at SIK2 was in the range of 0.01 to 10 nM; against SIK1, 10 to 100 nM; at SIK3, 0.01 to 10 nM.

Take `COc1cc(-c2cnc3cc(OCc4nnc(C5CC5)o4)ccn23)cc(OC(F)F)c1C(=O)NC1CC1` [compound 205, N-cyclopropyl-4-[7-[(5-cyclopropyl-1,3,4-oxadiazol-2-yl)methoxy]imidazo[1,2-a]pyridin-3-yl]-2-(difluoromethoxy)-6-methoxy-benzamide]: the IC50 against SIK2, on SIK1 and against SIK3 was 0.01 to 10 nM in each case.

Regarding `COc1cc(-c2cnc3cc(OCCOCCN4CCOCC4)ccn23)cc(OC(F)F)c1C(=O)NC1CC1` [compound 306, N-cyclopropyl-2-(difluoromethoxy)-6-methoxy-4-[7-[2-(2-morpholinoethoxy)ethoxy]imidazo[1,2-a]pyridin-3-yl]benzamide], the IC50 at SIK2 was 0.01 to 10 nM; on SIK1, 10 to 100 nM; against SIK3 it was 0.01 to 10 nM.

Consider `COc1cc(-c2cnc3cc(OCC4(F)CNC4)ccn23)cc2c1C(=O)N(CC(F)(F)F)CC2` [compound 250, 6-[7-[(3-fluoroazetidin-3-yl)methoxy]imidazo[1,2-a]pyridin-3-yl]-8-methoxy-2-(2,2,2-trifluoroethyl)-3,4-dihydro isoquinolin-1-one], for which the IC50 on SIK2 is 0.01 to 10 nM; against SIK1, 100 to 500 nM; at SIK3, 0.01 to 10 nM.

With `COc1cc(-c2cnc3cc(OCCN4CCC(F)(F)CC4)ccn23)cc(OC(F)F)c1C(=O)NC1CC1` [Cpd 181, N-cyclopropyl-2-(difluoromethoxy)-4-[7-[2-(4,4-difluoro-1-piperidyl)ethoxy]imidazo [1,2-a]pyridin-3-yl]-6-methoxy-benzamide], the IC50 fell in the range of 0.01 to 10 nM on SIK2, 10 to 100 nM at SIK1 and 0.01 to 10 nM on SIK3.

For the origin of these results see patent US12264156B2, “Compounds and pharmaceutical compositions thereof for the treatment of diseases” (GALAPAGOS NV, priority 2018, dated 2025).
